In patent US4774248A, “Methods of treating depression and depressive states using 5-phenyl-1,4,5,6-tetrahydropyrimidine derivatives” (priority 1985, dated 1988):
“Also recorded” adds a separate entry of the source.

Key:
[1] = test system: male mice; experiment: Acute toxicity, intraperitoneal (LD0, LD30, LD60, LD100); assay type: in vivo
Procedure: (§1) The results of toxicological and neuropsychopharmacological tests which were carried out with the products according to the invention have been summarized below. In these tests, solutions of the said products in distilled water were administered intraperitoneally in a volume of 20 ml/kg to male mice and in a volume of 5 ml/kg to male rats.

[2] = test system: mice; experiment: Overall behavior and reactivities in mice; assay type: in vivo; settings: i.p.
Summary of the method: (§2)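 Male mice (20 ml/kg) and male rats (5 ml/kg) dosed intraperitoneally with compound in distilled water.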

[3] = test system: rats; experiment: Overall behavior and reactivities in rats; assay type: in vivo; settings: i.p.
Summary of the method: as §2

[4] = test system: hypothermia, righting behavior and stereotypies induced by apomorphine; experiment: Interaction with apomorphine in mice; assay type: in vivo
Summary of the method: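 Male mice, groups of 6, given test compound intraperitoneally in distilled water (20 ml/kg) 30 min before subcutaneous apomorphine at 1 or 16 mg/kg. Hypothermia, righting behaviour and stereotypies scored.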

[5] = test system: stereotypies induced by apomorphine; experiment: Interaction with apomorphine in rats; assay type: in vivo; settings: i.p., apomorphine 0.5 mg/kg s.c., hydrochloride
Procedure: as §1
CRL 41 378 is administered to groups of 12 rats 0.5 h before the subcutaneous injection of 0.5 mg/kg of apomorphine.

[6] = test system: hypothermia, trembling and peripheral cholinergic symptoms induced by oxotremorine; experiment: Interaction with oxotremorine; assay type: in vivo; settings: mice, i.p.
Summary of the method: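 Male mice, groups of 6, given the compound intraperitoneally in distilled water (20 ml/kg) 0.5 h before 0.5 mg/kg oxotremorine i.p. Hypothermia, trembling and peripheral cholinergic symptoms were assessed.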

[7] = test system: mice; experiment: Four plate test; assay type: in vivo; settings: i.p.
Procedure: as §1
(§3) The test is performed on groups of 10 mice 30 minutes after the administration of CRL 41 378.

[8] = test system: mice; experiment: Traction; assay type: in vivo; settings: i.p.
Procedure: as §1, §3

[9] = test system: mice; experiment: Intergroup aggressiveness; assay type: in vivo
Summary of the method: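 Male mice housed 3 weeks per group in cage halves split by an opaque partition; groups of 3 given CRL 41 378 i.p. in distilled water.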

[10] = test system: mice; experiment: Motility reduced by hypoxic aggression (acute hypobaric anoxia); assay type: in vivo; settings: i.p.
Procedure: In these tests, solutions of the said products in distilled water were administered intraperitoneally in a volume of 20 ml/kg to male mice and in a volume of 5 ml/kg to male rats.

[11] = test system: mice; experiment: Asphyxiant anoxia caused by gallamine triiodoethylate; assay type: in vivo; settings: i.p., gallamine triiodoethylate 32 mg/kg
Procedure: as §1
Groups of 10 mice receive CRL 41 378 30 minutes before the intraperitoneal administration of 32 mg/kg of gallamine triiodoethylate (reference curarizing agent).

[12] = test system: sleep induced by barbital; experiment: Interaction with barbital; assay type: in vivo; settings: mice, i.p.; barbital 220 mg/kg
Procedure: as §1
Half an hour after the administration of CRL 41 378, groups of 10 mice receive an intraperitoneal injection of barbital (220 mg/kg).

[13] = test system: central nervous system (CNS); experiment: Neuropsychopharmacological profile (conclusions of the tests); assay type: in vivo, mice and rats
Procedure: as §1

[14] = test system: hypothermia induced by apomorphine; experiment: Interaction with apomorphine by gastric administration; assay type: in vivo; settings: Mus musculus, male mice, apomorphine 16 mg/kg s.c., read-out: dose as from which the hypothermia induced by apomorphine is opposed
Procedure: Each test product is administered gastrically to male mice, in a volume of 20 ml/kg, 0.50 h before the subcutaneous injection of 16 mg/kg of apomorphine.

[15] = test system: anesthetized dogs; experiment: Cardiovascular study in anesthetized dogs; assay type: in vivo
Procedure: Groups of 2 adult dogs (each weighing 10 to 18 kg), anesthetized with nembutal, receive each test product (i) by intraduodenal administration at successive doses of 0.1 mg/kg, 0.5 mg/kg, 1 mg/kg, 2.5 mg/kg, 5 mg/kb, 10 mg/kg and 20 mg/kg, and then (ii) if appropriate, by intravenous administration at a dose of 10 mg/kg. The effects of 10 μg/kg of isoprenaline and/or 2 μg/kg of norepinephrine after the intraduodenal administration of a cumulative dose of 39.1 mg/kg are also assessed.
The following are measured: the total arterial blood pressure, the diastolic arterial blood pressure, the heart rate, the blood flows through the femoral and cerebral arteries and saphenous veins, the rectal temperature, the skin temperature and the pressure of the gases (essentially O2) dissolved in the arterial blood.

[16] = test system: trembling and head twitches induced by 5-hydroxytryptophan (5-HTP); experiment: Interaction with 5-hydroxytryptophan in association with an MAOI (nialamide); assay type: in vivo, male mice
Procedure: The purpose of the procedure used is to investigate the activity of each product according to the invention as regards the trembling induced by 5-hydroxytryptophan (5-HTP) in association with an MAOI (in this case nialamide).
Each test product, in solution in distilled water, is administered intraperitoneally in a volume of 20 ml/kg to male mice.
Groups of 10 mice receive nialamide (20 mg/kg, administered gastrically) at time T-18 h, each test product at time T-0.5 h and then (±)-5-HTP (20 mg/kg, administered intraperitoneally) at time T. Immediately after the injection of the (±)-5-HTP, the mice are individually placed in transparent plastic boxes. The generalized trembling, the partial trembling and the head twitches are noted on a yes/no basis for 2 h.

[17] = i.p., nialamide + (±)-5-HTP, male mice

`CC(=O)N1C=NCC(c2ccccc2)C1.Cl` (stereo not shown) [CRL 41 378, 1-acetyl-5-phenyl-1,4,5,6-tetrahydropyrimidine hydrochloride] was tested, and the “toxic signs in the animals treated” value ([1]; 256 mg/kg i.p.) was “all the animals treated exhibit dyspnea, substantial salivation and convulsions 10 minutes after administration”, the “LD0 (maximum non-lethal dose)” value ([1]; intraperitoneal) was “greater than 256 mg/kg” and the “overall behavior and reactivities” value ([2]; 1 mg/kg) was “no distinct modification of the behavior and reactivities compared with the control animals”. For the same compound, the “overall behavior and reactivities” value ([2]; 4 mg/kg) was “moderate mydriasis for 3 h, the maximum intensity being reached 1 h after administration”, the “overall behavior and reactivities” value ([2]; 16 mg/kg, hydrochloride) was “moderate salivation 1 h after administration; also recorded: moderate hypothermia; also recorded: moderate mydriasis 1 h after administration” and the “overall behavior and reactivities” value ([2]; 64 mg/kg, hydrochloride) was “sedation for 3 h; also recorded: a decrease in the breathing rate appearing between T+0.5 h and T+1 h after administration; also recorded: moderate hypothermia; also recorded: an increase in the reactivity to touch and vasodilation of the paws for 0.5 h; also recorded: salivation appearing between T+1 h and T+2 h after administration; also recorded: mydriasis for 3 h”. The “overall behavior and reactivities” value ([3]; 0.5 mg/kg) was “moderate mydriasis for 2 h, the maximum intensity being reached 0.5 h after administration”, the “overall behavior and reactivities” value ([3]; 2 mg/kg) was “mydriasis for 3 h, the maximum intensity also being reached 0.5 h after administration” and the “overall behavior and reactivities” value ([3]; 32 mg/kg, hydrochloride) was “a decrease in the breathing rate and muscle tonus for 1 h; also recorded: exophthalmos for 1 h; also recorded: piloerection for 2 h; also recorded: salivation appearing 0.5 h after administration; also recorded: vasodilation of the paws and snout for 0.5 h; also recorded: mydriasis for 2 h, the maximum intensity being reached 0.5 h after administration”. For the same compound, the minimal effective dose ([4]; Mus musculus, ip, read-out: dose as from which the hypothermia induced by apomorphine is antagonized) was at least 0.5 mg/kg, the “action on righting behavior and stereotypies due to apomorphine” value ([4]; i.p.) was “practically no modification of the righting behavior and stereotypies due to apomorphine” and the “action on hypothermia induced by apomorphine” value ([4]; i.p., hydrochloride) was “antagonizes the hypothermia induced by apomorphine; also recorded: antagonism of the hypothermia induced by apomorphine, reserpine and oxotremorine in mice”. The “action on stereotypies induced by apomorphine” value [5] was “at the two highest doses used (8 and 32 mg/kg), CRL 41 378 seems to cause a moderate decrease in the stereotypies induced by apomorphine; also recorded: moderate antagonism of the stereotyped movements induced by apomorphine in rats”, the minimal effective dose ([6]; Mus musculus, ip, read-out: dose as from which the hypothermia induced by oxotremorine is antagonized) was at least 0.5 mg/kg and the “action on signs of peripheral cholinergic stimulation induced by oxotremorine” value ([6]; oxotremorine 0.5 mg/kg) was “practically no modification of the signs of peripheral cholinergic stimulation induced by oxotremorine”. For the same compound, the “action on trembling induced by oxotremorine” value ([6]; oxotremorine 0.5 mg/kg) was “does not modify the intensity of the trembling induced by oxotremorine”, the “action on hypothermia induced by oxotremorine” value ([6]; oxotremorine 0.5 mg/kg, hydrochloride) was “very intense at doses of 2 and 4 mg/kg and is then less significant for the highest doses used (16 and 64 mg/kg); also recorded: antagonism of the hypothermia induced by apomorphine, reserpine and oxotremorine in mice” and the “number of punished passes” value [7] was “does not modify the number of punished passes”. For the same compound, the “motor incoordination / incapacity” value [8] was “does not cause motor incoordination”, the minimal effective dose ([9]; Mus musculus, ip, read-out: dose as from which the intergroup aggressiveness is decreased) was at least 0.5 mg/kg and the “intergroup aggressiveness (number of fights)” value ([9]; mice, i.p., hydrochloride) was “decreases the intergroup aggressiveness as from a dose of 0.5 mg/kg but especially at doses of 2 mg/kg, 4 mg/kg and 16 mg/kg; also recorded: a decrease in the intergroup aggressiveness of mice (at doses which do not decrease the spontaneous motor activity)”. The “lethal effects of hypobaric anoxia” value [10] was “At a dose of 64 mg/kg, CRL 41 378 aggravates the effects of hypobaric anoxia and causes the death of all the animals treated”, the “motor recovery after acute hypobaric hypoxia” value [10] was “at doses of 1 mg/kg, 4 mg/kg and 16 mg/kg, CRL 41 378 does not cause a modification of the motor recovery” and the “time taken for convulsions and death / lethal effects of gallamine triiodoethylate” value [11] was “at the highest dose used (64 mg/kg), CRL 41 378 causes a moderate decrease in the time taken for convulsions and death to occur”. For the same compound, the “duration of the sleep induced by barbital” value [12] was “practically no modification of the duration of the sleep induced by barbital”, the “lethal effects of the various convulsants studied” value ([13]; electric shock, hypobaric hypoxia, asphyxiant anoxia) was “aggravates the lethal effects of the various convulsants studied (electric shock, hypobaric hypoxia, asphyxiant anoxia)” and the antidepressant effects ([13]; i.p.) was “antidepressant effects appearing as from the lowest doses”. The peripheral anticholinergic activity ([13]; i.p.) was “absence of peripheral anticholinergic activity”, the stimulant effects ([13]; i.p.) was “absence of stimulant effects on the CNS” and the “peripheral α-adrenergic stimulant effects” value ([13]; i.p., hydrochloride) was “peripheral α-adrenergic stimulant effects appearing at high doses; also recorded: an α1 stimulation component represented by salivation and mydriasis (in mice and rats) and piloerection (in rats); also recorded: moderate hyperthermia in mice; also recorded: peripheral vasodilation (tail, paws and snout) in mice and rats”. The sedative effects ([13]; i.p., hydrochloride) was “sedative effects appearing at high doses; also recorded: sedation in mice”, the overall neuropsychopharmacological profile ([13]; summary, hydrochloride) was “an antidepressant exhibiting sedative effects at high doses; also recorded: resembles β-adrenergic stimulants” and the minimal effective dose [14] was at least 0.5 mg/kg. The rectal temperature [15] was “increases the rectal temperature”, the skin temperature [15] was “does not cause a distinct modification of the skin temperature” and the arterial blood pressure ([15]; intraduodenal) was “no effect on the arterial blood pressure by intraduodenal administration”. The arterial blood pressure ([15]; intravenous) was “hypotensive by intravenous administration”, the effects of isoprenaline ([15]; isoprenaline 10 μg/kg) was “decreases the effects of isoprenaline on the heart rate” and the “hypertension induced by norepinephrine” value ([15]; norepinephrine 2 μg/kg) was “decreases the hypertension induced by norepinephrine”. For the same compound, the “analogy with β-adrenergic stimulants in the 5-HTP procedure” value ([16]; 5-HTP + MAOI) was “more closely resembles fenoterol”, the “intensity of potentiation of 5-HTP effects” value ([16]; higher doses, 5-HTP + MAOI, male mice) was “the potentiation being very intense as from a dose of 16 mg/kg” and the head twitches [16, 17] was “moderately potentiates the head twitches”. The partial trembling [16, 17] was “distinctly potentiates the partial trembling”.
